Laboratory results taken from US20200390755A1, “COMPOUND FOR TREATING NERVOUS SYSTEM DISEASES AND USE THEREOF” (SHAANXI MICOT TECHNOLOGY CO., LTD., priority 2018, published 2020).

Legend:
[1] = target: T1, TrkB receptor (Mus musculus, UniProt P15209); test: Western blotting of p-TrkB and t-TrkB in primary cortical neuron cells; format: cell-based; settings: 500 nM, 10 min at 37° C., Vehicle = 100, n = 3
T1 construct: The culture continued until the primary cortical neuron cells mature; endogenous in cells; host or cells: primary cortical neurons from E18 mouse embryos (N171-82Q WT male x B6C3F1/J female)
T1 sequence (P15209 32-821): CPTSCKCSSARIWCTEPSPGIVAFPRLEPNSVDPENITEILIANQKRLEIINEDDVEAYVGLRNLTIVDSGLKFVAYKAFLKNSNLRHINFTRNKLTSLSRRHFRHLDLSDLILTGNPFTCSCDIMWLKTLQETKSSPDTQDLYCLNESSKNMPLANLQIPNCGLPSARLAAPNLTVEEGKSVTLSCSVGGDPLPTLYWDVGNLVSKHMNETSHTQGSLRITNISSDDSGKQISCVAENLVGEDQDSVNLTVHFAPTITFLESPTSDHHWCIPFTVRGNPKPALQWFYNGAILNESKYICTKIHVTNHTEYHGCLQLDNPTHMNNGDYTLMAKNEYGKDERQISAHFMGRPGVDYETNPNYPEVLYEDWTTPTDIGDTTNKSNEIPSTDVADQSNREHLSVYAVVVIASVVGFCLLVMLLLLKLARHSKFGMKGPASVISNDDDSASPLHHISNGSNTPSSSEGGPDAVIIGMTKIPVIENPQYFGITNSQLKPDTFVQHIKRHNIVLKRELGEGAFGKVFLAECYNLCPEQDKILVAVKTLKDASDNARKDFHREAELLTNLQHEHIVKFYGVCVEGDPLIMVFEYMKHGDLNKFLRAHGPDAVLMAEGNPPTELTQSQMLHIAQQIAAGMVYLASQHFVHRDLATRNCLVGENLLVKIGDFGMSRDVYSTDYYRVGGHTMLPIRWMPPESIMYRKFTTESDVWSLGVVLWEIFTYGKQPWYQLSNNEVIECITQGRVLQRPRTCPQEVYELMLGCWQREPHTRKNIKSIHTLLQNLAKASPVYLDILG
Protocol: N171-82Q WT male mice were mated with female B6C3F1/J hybrid mice. B6C3F1/J mice 18 days after pregnancy were anesthetized with isoflurane and dissected to remove embryos, which were then placed in a 10 cm Petri dish containing Leibovitz's buffer. The head of the embryo was cut off, and the brain was peeled off to obtain the whole mouse brain, which was then placed in a new 10 cm Petri dish containing Leibovitz's buffer. The neurocortex of the brain was separated and placed in a 15 mL centrifuge tube containing 3 mL Leibovitz's buffer. The centrifuge tube was centrifuged at 1000 rpm for 1 minute, and the Leibovitz's buffer was gently removed from the centrifuge tube, and then 750 μL of 0.25% trypsin-EDTA and 75 μL of 0.1% DNase (2000 U/mL) were added to digest at 37° C. for 15 min. 750 μL of DMEM medium containing 5% FBS was added to stop the digestion. The cells were mixed well, and centrifuged at 1000 rpm for 5 minutes. Trypins/DNase mixture was removed, and 750 μL of Neurobasal medium (B-27, Glutamax, P/S) was added. The cells were mixed by gently pipetting with a pipette for 30 times. The cell suspension was filtered with a 40 µm filter and transferred to another new 50 mL centrifuge tube. 10 μL of the cell suspension was added to 90 μL of DMEM (diluted 10 times), and 10 μL of the liquid mixture was placed on a hemocytometer so that the suspension filled between the cover slip and the counting plate for counting. The cells in the four large grids of the plate were counted, wherein for the cells across the line, only the cells on the left and upper side lines were counted. The following formulas were used:
Number of cells/mL=total number of cells in the four large grids/4×10^4/mL
Total number of cells/mL=total number of cells in the four large grids/4×10^4/mL×dilution factor.
After counting, the cells were diluted with Neurobasal selection medium so that 1 mL of Neurobasal culture medium contained 0.5×10^6 cells.
200 μL of PDL solution previously heated in a 37° C. water bath was added to each well of a 6-well plate, and incubated at 37° C. overnight to allow PDL to evenly coat the well plate. The PDL solution was absorbed and the plate was washed twice with PBS. Before use, the PBS remaining on the plate was absorbed and the cover was opened to dry the plate in a super clean bench. 2 mL of cell suspension was added to each well (37° C., 5% CO2), and the cells were cultured until adherence. The culture medium was replaced and the culture continued for 3 days, and then the growth status of neurons was observed. Every other 3 days, half of the medium was removed and replaced with fresh complete medium. The culture continued until the primary cortical neuron cells mature (usually mature on the 14th day of culture).
After the primary cortical neuron cells have matured, appropriate amount of freshly prepared culture medium was added until final volume in each well was 2 mL. The experiment included a blank control group (Vehicle), a positive control group BDNF (10 ng/mL), a control compound group (500 nM), and 6 test compound groups (500 nM). Three repeats were set for each dose. After incubating at 37° C. for 10 min, the culture solution was discarded and the cells were washed with pre-chilled PBS, and then 40 μL of pre-chilled lysate (RIPA buffer 10 mL and protease and phosphatase inhibitor 100 μL) was added to each well for lysis on ice for 30 min. After lysis, the cell was crushed by ultrasonic cell crusher, centrifuged at 14000 rpm for 20 min at 4° C. The supernatant was transferred to a new 1.5 mL centrifuge tube to extract protein. Western blotting experiments were used to detect the protein levels of (A) p-TrkB and t-TrkB; (B) p-AKT and t-AKT.
The software Sigmaplot 13.0 was used for statistical analysis of the data, and the data of each group was expressed as mean±standard error (x±SEM). […]

[2] = test system: N171-82Q HD mice; test: Immunohistochemical analysis of mHtt protein aggregates in neurocortex (EM48); format: in vivo, mouse; settings: 5 mg/kg/d until 25 weeks, six visual fields, n = 3
Protocol: 7-week-old N171-82Q HD male mice were paired with female B6C3F1/J hybrid mice to obtain newborn mice. From 21 days of age, male mice were housed in separate cages. 0.5 cm of mouse tail tissue was removed to extract DNA to determine the genotype of the mouse, such that N171-82Q HD mice and WT mice needed for the experiment were obtained. The mice were randomly divided into WT Vehicle group (normal mice), WT test compound group (administration group of normal mice, 5 mg/kg/d, n=10), HD Vehicle group (blank group of HD mice, n=15), HD test compound group (administration groups 1-5 of HD mice, 5 mg/kg/d, n=10). The test compound was suspended in 1% CMC-Na solution and administered by intragastric administration until the end of the study. The weights of the mice were measured every week. Behavioral tests were performed at 12 weeks, 18 weeks, and 24 weeks of age to investigate motor function. At 20 weeks, 3 samples of tissue from each group were used for western blotting and immunohistochemistry. At 24 weeks, MRI scans were performed. At the end of the study, the effect of the test compound on the mortality of mice was evaluated.
After the behavioral evaluation of the mice in each experimental group was completed and the administration continued until 25 weeks, 3 mice were taken from each group for […]. The right brain isolated from the mice was post-fixed in 4% paraformaldehyde for 24 h. The post-fixed brain tissue was put into 30% sucrose solution to allow it to sink to the bottom, and then brain slices with a thickness of 35 m were cut along the crown with a freezing microtome and placed in DPBS for storage. The stored brain slices were rinsed once with PBS, and blocked with 1 mL goat serum+9 mL PBS+1% TritonX-100 at room temperature on a shaker for 2˜3 h. After blocking, the brain slices were rinsed for 3 times with PBS, 5 min each time. Brain slices were taken out with a small brush and placed in a 24-well plate with primary antibody (anti-Huntingtin, clone mEM48, 1:25, mouse, prepared with blocking solution) for overnight incubation on a shaker in cold room at […]. After washing with PBS, brain slices were placed in a 24-well plate with secondary antibody (555, anti-mouse) for washing, and incubated on a shaker at room temperature for 2 h. After washing with PBS, brain slices was placed in a 24-well plate containing 800 μL DAPI (prepared with PBS, 1:10000) for staining on a shaker at room temperature for 10 min. The brain slices were taken out and placed in a 24-well plate containing 800 μL of PBS for washing on a shaker at room temperature for 10 min. The slide was placed flat on the experimental table with the front side facing upwards, and PBS was added dropwise on the slide to expand the brain slice in PBS. After drying, the mHtt protein was immunofluorescently stained with EM48 antibody (anti-Huntingtin) and photographed for observation.
After immunofluorescence staining of brain tissue, cells with mHtt protein aggregation in six visual fields in the right neurocortex were counted, and the average value was taken for analysis and statistics. A representative image of a neurocortex immunostained with the EM48 antibody for test compound example 1 is shown in FIG. 5, in which the scale bars are 50 μm, and the light-colored dots are cells with mHtt protein aggregation.

Compound	Relative intensity of p-TrkB/t-TrkB protein [1]	Average number of cells with mHtt protein aggregation [2]
O=c1cc(-c2ccc(N3CCCCC3)cc2)oc2c(O)c(O)ccc12 [Example 1, 7,8-dihydroxy-2-(4-(piperidin-1-yl)phenyl)-4H-chromen-4-one]	216.727 ± 8.642	152.500 ± 7.920
COc1ccc2c(=O)cc(-c3ccc(N4CCCCC4)cc3)oc2c1OC [Example 2, 7,8-dimethoxy-2-(4-(piperidin-1-yl)phenyl)-4H-chromen-4-one]	206.453 ± 7.574	158.449 ± 13.260
CN(C)C1CCN(c2ccc(-c3cc(=O)c4ccc(O)c(O)c4o3)cc2)CC1 [Example 3, 2-(4-(4-(dimethylamino)piperidin-1-yl)phenyl)-7,8-dihydroxy-4H-chromen-4-one]	234.685 ± 14.695	148.794 ± 10.157
CC1(C)CCN(c2ccc(-c3cc(=O)c4ccc(O)c(O)c4o3)cc2)CC1 [Example 4, 2-(4-(4,4-dimethylpiperidin-1-yl)phenyl)-7,8-dihydroxy-4H-chromen-4-one]	216.198 ± 8.865	155.286 ± 9.567
CC1CC(C)CN(c2ccc(-c3cc(=O)c4ccc(O)c(O)c4o3)cc2)C1 (stereo not shown) [Example 5, 2-(4-(3,5-dimethylpiperidin-1-yl)phenyl)-7,8-dihydroxy-4H-chromen-4-one]	213.254 ± 12.379	151.687 ± 8.365
